In assay [1] the test system is astrocyte/neuron co-culture. The assay is described as follows: Brain cell damage induced by hydrogen peroxide treatment (LDH assay). Format: cell-based. The following applies: Rattus norvegicus, hydrogen peroxide (250 μM), 24 hours, read-out: 50% inhibition concentration against cell damage in entire co-culture system (EC50 value). On the procedure: (§1) The brain was removed from 1 to 2 day old Wistar rats (Charles River) or Sprague-Dawley (IGS) rats (Charles River), and the cerebral cortex including the hippocampus was excised under ice cooling. After this cerebral cortex was minced, it was digested with papain solution (9 U/ml) containing DNase I (30 U/ml) at 37 degrees Celsius for 15 minutes, dispersing the cells. After further carrying out mechanical dispersing by pipetting, it was passed through a cell strainer with a pore size of 70 μm, and a cell suspension was obtained. Cells derived from 1.4 cerebra were seeded on 150 mm tissue culture dish (Iwaki Glass), and primary culture was carried out at 37 degrees Celsius and 5% CO2 using a D-MEM medium (Invitrogen) containing 10% heat-inactivated fetal calf serum (JRH). One day after the start of the culture, the nonadherent cells were removed, and the primary cultured astrocytes were obtained by continuing the culture for 4 to 5 further days. The primary cultured astrocytes were dispersed by trypsin treating, suspended in cryopreservation solution, and cryopreserved.
(§2) After thawing the cryopreserved primary cultured astrocytes, they were seeded on tissue culture plates (Iwaki Glass), and a confluent astrocyte layer was produced by a further 7 days of secondary culture using a D-MEM medium containing 10% heat-inactivated fetal calf serum. Neurons to be used in the co-culture with the astrocyte layer were obtained from fetal rat cerebrum. Briefly, brains were removed from Wistar rats (Charles River) or Sprague-Dawley (IGS) rats (Charles River) of embryonic age 18.5 days, and the cerebral cortex including the hippocampus was excised under ice cooling. After this cerebral cortex was minced, it was digested in papain solution (9 U/ml) containing DNase I (30 U/ml) at 37 degrees Celsius for 15 minutes, dispersing the cells. After further carrying out mechanical dispersing by pipetting, it was passed through a cell strainer with a pore size of 70 μm, and a cell suspension was obtained. This cell suspension was plated at a density of 1.3×10^5 cells/cm^2 on the astrocyte layer, and a co-culture was carried out using D-MEM/F-12 medium (Invitrogen) containing 10% heat-inactivated fetal calf serum and 5% horse serum (Invitrogen). 2 days after the start of the co-culture, cells were treated for 24 hours with 10 μM cytosine arabinoside in order to suppress the excessive cell proliferation of microglia and the like. 8 to 9 days after the start of the co-culture, cells were used for the test. Additionally, using one portion of the cells, immunofluorescent staining and nuclear staining was carried out with astrocyte recognizing antibodies (anti-GFAP) and neuron recognizing antibodies (anti-MAP2), in order to confirm that the present culture system is a co-culture system of astrocytes and neurons.
(§3) An astrocyte/neuron co-culture cultured on a 96 well plate was used in the test. A predetermined concentration of the test substance and hydrogen peroxide (250 μM) was simultaneously added to the cell culture in each well with continuing cultivation, and analysis was done 24 hours after this treatment. Using an LDH Cytotoxicity Detection Kit (Takara Bio), analysis was carried out in accordance with the included instruction manual, and the damage to the entire co-culture system by the hydrogen peroxide treatment and the protective effect (EC 50 value) of the test substance was evaluated. Further, the cell bodies and the neuronal processes of the neurons were observed by microscope, and the neuroprotective effect was evaluated.

The test system of assay [2] is rat brain homogenate (lipid peroxide production). Put plainly: Antioxidant activity test (rat brain homogenate autoxidation test). It counts as biochemical. The following applies: lipid peroxide production suppression, 2 hours at 37 degrees Celsius, thiobarbituric acid method. On the procedure:
The cerebrum was removed from 7 to 11 week old male Wistar rats (Nihon Ikagaku) or male Sprague-Dawley (IGS) rats (Charles River), physiological saline was added, and a 20% brain homogenate was made. 4 μl of test compound dissolved in DMSO was mixed with 200 μl of brain homogenate and 200 μl of PBS (−) (diluted 100 times), incubated for 2 hours at 37 degrees Celsius and shaken at a rate of 160 times per minute, thereby producing a lipid peroxide. After cooling for 5 minutes, the produced lipid peroxide was measured as a thiobarbituric acid reactive substance by using the thiobarbituric acid method. Briefly, 100 μl of 8.1% dodecyl sulfate, 750 μl of 20% acetic acid adjusted to a pH of 3.5, and 750 μl of 0.8% thiobarbituric acid were added, and boiled for 60 minutes, and then cooled. Next, 500 μl of distilled water and 2.5 ml of N-butanol/pyridine (15:1) were added and after 5 minutes of shaking, the supernatant was taken after centrifuging for 10 minutes at 3000 rpm, and the absorbance at 532 nm was measured. The number of examples was 2 examples. Calculation was done of the (absorbance at each concentration/absorbance of a solvent control)×100, and after logit transformation, the lipid peroxide production suppression effect (IC 50 value) was calculated as an indicator of antioxidant activity.

Assay [3] relates to neurons in astrocyte/neuron co-culture. The assay is described as follows: Brain cell damage induced by hydrogen peroxide treatment (neuroprotective effect, microscope observation). It counts as cell-based. To be noted: Rattus norvegicus, hydrogen peroxide (250 μM), 24 hours, read-out: Concentration for complete inhibition of neuronal death. On the procedure:
as §1, §2, §3

The source of these data is patent US8563715B2, “Pyrimidine derivative having cell protecting effect and uses thereof” (Zenyaku Kogyo Kabushikikaisha, priority 2008, dated 2013).

Broadly, the IC50 is the concentration at which inhibition is half-maximal. A low value points to higher potency. For `Nc1c(N2CCOCC2)nc(N2CCN(Cc3ccccc3)CC2)nc1N1CCOCC1` [Compound 73, 5-amino-2-(4-benzylpiperazin-1-yl)-4,6-dimorpholinopyrimidine], in assay [1], the EC50 was 10600 nM. Besides, it took 690 nM to reach half-maximal inhibition in assay [2] (IC50).

As for `Cc1ccc(N2CCN(c3nc(N4CCN(C)CC4)nc(N4CCOCC4)c3F)CC2)cc1` [Compound 151, 5-fluoro-4-[4-(4-methylphenyl)piperazin-1-yl]-2-(4-methylpiperazin-1-yl)-6-morpholinopyrimidine], the EC50 in assay [1] came to 980 nM. In assay [2], this compound displayed an IC50 of 8410 nM.

`COc1ccc(/C=C/c2nc(N3CCOCC3)c(F)c(N3CCOCC3)n2)cc1` [Compound 216, 5-fluoro-2-[2-(4-methoxyphenyl)vinyl]-4,6-dimorpholinopyrimidine]: the EC50 in assay [1] was determined as 730 nM. Moreover, in assay [2], it took 860 nM to reach half-maximal inhibition (IC50). Besides, the EC100 in assay [3] was 3 µM.

For the compound `COc1ccc(CCc2nc(N3CCNCC3)c(N)c(N3CCOCC3)n2)cc1` [Compound 199, 5-amino-2-[2-(4-methoxyphenyl)ethyl]-4-(1-piperazinyl)-6-morpholinopyrimidine], the EC50 in assay [1] amounted to 3050 nM. Besides, in assay [2], the midpoint of inhibition, the IC50, lay at 8120 nM. Besides, the EC100 in assay [3] is 10 µM.

As for `Fc1c(N2CCOCC2)nc(N2CCOCC2)nc1N1CCNC(c2ccccc2)C1` (stereo not shown) [Compound 94, 5-fluoro-2,4-dimorpholino-6-(3-phenylpiperazin-1-yl)pyrimidine], in assay [1], the EC50 was 680 nM. In assay [2], the IC50 is 16000 nM. For the same compound, the EC100 in assay [3] is 3 µM.

Take `COc1ccc(/C=C/c2nc(NCC(=O)OC(C)(C)C)c(N)c(N3CCOCC3)n2)cc1` [Compound 197, 5-amino-4-(4-tert-butoxycarbonylmethylamino)-2-[2-(4-methoxyphenyl)vinyl]-6-morpholinopyrimidine]: the EC50 in assay [1] amounted to 550 nM. The compound further displayed a half-maximal inhibitory concentration (IC50) in assay [2] of 990 nM. The EC100 in assay [3] stood at 3 µM.

In the case of `COc1ccc(/C=C/c2nc(N3CCOCC3)c(N)c(N3CCN(C(=O)CN)CC3)n2)cc1` [Compound 176, 5-amino-4-(4-aminomethylcarbonylpiperazin-1-yl)-2-[2-(4-methoxyphenyl)vinyl]-6-morpholinopyrimidine], in assay [1], the EC50 worked out at 2740 nM. In assay [2], this compound had an IC50 of 2160 nM. Besides, the EC100 in assay [3] was found to be 10 µM.

Take `COc1ccc(/C=C/c2nc(N3CCNCC3)c(N)c(N3CCOCC3)n2)cc1` [Compound 170, 5-amino-2-[2-(4-methoxyphenyl)vinyl]-4-morpholino-6-(1-piperazinyl)pyrimidine]: the EC50 in assay [1] came out at 990 nM. For the same compound, in assay [2], the half-maximal inhibitory concentration (IC50) is 3100 nM. Also, the EC100 in assay [3] is 3 µM.

For the compound `CN(C)c1nc(N2CCC(Cc3ccccc3)CC2)nc(N2CCSCC2)c1N` [Compound 69, 5-amino-2-(4-benzylpiperidin-1-yl)-4-dimethylamino-6-thiomorpholinopyrimidine], in assay [1], the EC50 came out at 290 nM. In assay [2], the IC50 came to 1260 nM. In addition, the EC100 in assay [3] stood at 3 µM.

For the compound `COc1ccc(/C=C/c2nc(N3CCOCC3)c(N)c(N3CCN(S(=O)(=O)N(C)C)CC3)n2)cc1` [Compound 215, 5-amino-4-(4-dimethylsulfamoylpiperazin-1-yl)-2-[2-(4-methoxyphenyl)vinyl]-6-morpholinopyrimidine], the EC50 in assay [1] amounted to 1610 nM. Besides, the EC100 in assay [3] is 10 µM.

On to `Nc1c(N2CCOCC2)nc(/C=C/c2ccc(N3CCCCC3)cc2)nc1N1CCOCC1` [Compound 136, 5-amino-4,6-dimorpholino-2-[2-(4-piperidinophenyl)vinyl]pyrimidine], for which the EC50 in assay [1] worked out at 730 nM. This compound returned an IC50 in assay [2] of 1690 nM. For the same compound, in assay [3], the EC100 is 3 µM.

On to `Nc1c(N2CCOCC2)nc(N2CCC(Cc3ccccc3)CC2)nc1N1CCOCC1` [Compound 66, 5-amino-2-(4-benzylpiperidin-1-yl)-4,6-dimorpholinopyrimidine], for which the EC50 in assay [1] stood at 2860 nM. Further, it took 820 nM to reach half-maximal inhibition in assay [2] (IC50). Besides, the EC100 in assay [3] stood at 30 µM.

Regarding `Fc1c(N2CC=C(c3ccccc3)CC2)nc(N2CCOCC2)nc1N1CCOCC1` [Compound 121, 5-fluoro-2,4-dimorpholino-6-(4-phenyl-1,2,5,6-tetrahydropyridin-1-yl)pyrimidine], in assay [1], the EC50 worked out at 320 nM. This compound also displayed an IC50 in assay [2] of 5050 nM. For the same compound, the EC100 in assay [3] was 1 µM.

As for `Fc1c(N2CCOCC2)nc(N2CCOCC2)nc1N1CCc2ccccc2C1` [Compound 87, 5-fluoro-4-(3,4-dihydro-1H-isoquinolin-2-yl)-2,6-dimorpholinopyrimidine], the EC50 in assay [1] was found to be 680 nM. In assay [2], the IC50 stood at 5780 nM. Besides, the EC100 in assay [3] was 3 µM.

In the case of `COc1ccc(CCc2nc(N3CCOCC3)c(N)c(N3CCN(S(=O)(=O)N(C)C)CC3)n2)cc1` [Compound 214, 5-amino-4-(4-dimethylsulfamoylpiperazin-1-yl)-2-[2-(4-methoxyphenyl)ethyl]-6-morpholinopyrimidine], in assay [1], the EC50 was 2260 nM. Moreover, in assay [3], the EC100 amounted to 10 µM.

Take `Nc1c(N2CCOCC2)nc(N2CCN(c3ccccn3)CC2)nc1N1CCOCC1` [Compound 75, 5-amino-4,6-dimorpholino-2-[4-(pyridin-2-yl)-piperazin-1-yl]pyrimidine]: the EC50 in assay [1] was found to be 9460 nM. This compound showed an IC50 in assay [2] of 670 nM.

With `Cc1cccc(N2CCN(c3nc(N4CCNCC4)nc(N4CCOCC4)c3F)CC2)c1C` [Compound 178, 5-fluoro-4-morpholino-2-(1-piperazinyl)-6-[4-(2,3-xylyl)piperazin-1-yl]pyrimidine], the EC50 in assay [1] stood at 480 nM. The EC100 in assay [3] came to 3 µM.

With `CCOC(=O)C1CSCCN1c1nc(/C=C/c2ccc(OC)cc2)nc(N2CCOCC2)c1N` (stereo not shown) [Compound 209, 5-amino-4-(3-ethoxycarbonylthiomorpholin-4-yl)-2-[2-(4-methoxyphenyl)vinyl]-6-morpholinopyrimidine], the EC50 in assay [1] is 1480 nM. Besides, the EC100 in assay [3] was 10 µM.

Consider `COc1ccc(/C=C/c2nc(NCCN3CCOCC3)c(N)c(N3CCOCC3)n2)cc1` [Compound 207, 5-amino-2-[2-(4-methoxyphenyl)vinyl]-4-morpholino-6-(2-morpholinoethylamino)pyrimidine], for which, in assay [1], the EC50 came to 5800 nM. Also, the EC100 in assay [3] was determined as 10 µM.

As to `COc1ccc(/C=C/c2nc(NCC(N)=O)c(N)c(N3CCOCC3)n2)cc1` [Compound 206, 5-amino-4-carbamoylmethylamino-2-[2-(4-methoxyphenyl)vinyl]-6-morpholinopyrimidine], the EC50 in assay [1] came to 4850 nM. Moreover, in assay [3], the EC100 stood at 10 µM.

With `Cc1ccccc1N1CCN(c2nc(N3CCOCC3)cc(N3CCN(c4ccccc4)CC3)n2)CC1` [Compound 61, 2-[4-(2-methylphenyl)piperazin-1-yl]-6-morpholino-4-(4-phenylpiperazin-1-yl)pyrimidine], the EC50 in assay [1] was 6450 nM. For the same compound, the EC100 in assay [3] was 10 µM.

In the case of `CCOc1ccccc1N1CCN(c2nc(N3CCOCC3)c(F)c(N3CCN(C)CC3)n2)CC1` [Compound 190, 2-[4-(2-ethoxyphenyl)piperazin-1-yl]-5-fluoro-4-(4-methylpiperazin-1-yl)-6-morpholinopyrimidine], the EC50 in assay [1] stood at 340 nM. In assay [3], the EC100 was 3 µM.
